In patent publication US20250326794A1, “ANTI-CANCER LEUCINE-RICH PEPTIDES AND USES THEREOF” (KING'S COLLEGE LONDON, priority 2019, published 2025):
Like-named read-outs stand apart in the source and are kept apart here.

Tests used:
[1] = test system: U2OS (human bone osteosarcoma)
Source text: (§1) HMLER (human mammary endothelial cancer cells), HMLER-shEcad (human mammary endothelial cancer stem cells), and MCF-10A (healthy human mammary endothelial) cells were maintained in Mammary Epithelial Cell Growth Medium (MEGM) with supplements and growth factors: bovine pituitary extract (BPE), hydrocortisone, human epidermal growth factor (hEGF), insulin, and gentamicin/amphotericin-B. HEK293T (human embryonic kidney cell), and U2OS (Homo sapiens bone osteosarcoma) cells were maintained in Dulbecco's Modified Eagle's Medium (DMEM) with a final concentration of 10% fetal bovine serum. The cells were grown in T75 flask at 310 K in a humidified atmosphere containing 5% CO2.
(§2) The colourimetric MTT (3-(4,5-dimethylthiazol-2-yl)-2,5-diphenyltetrazolium bromide) assay was used to determine the toxicity of the anticancer peptides and conventional anticancer drugs. 5×10^3 cells were seeded in each well of a 96-well microplate. The cells were incubated overnight. Elevated concentrations of the compounds (0, 0.1, 0.2, 0.4, 0.8, 1.6, 3.1, 6.3, 12.5, 25, 50 and 100 μM) were added and incubated for 72 hr with a total volume 200 μL. The stock solutions of the compounds were prepared as 5 mM solutions in DMSO and diluted using media or in pure water. The final concentration of DMSO in each well was either 0.5% or 0% and this amount was present in the untreated control. After 72 hr, 20 μL of a 4 mg/mL solution of MTT in PBS was added to each well, and the plate was incubated for an additional 4 hr. The MEGM/MTT mixture was aspirated and 100 μL of DMSO was added to dissolve the resulting purple formazan crystals. The absorbance of the solutions in each well was read at 550 nm wavelength. Absorbance values were normalized to either DMSO-containing or non DMSO-containing control wells and plotted as concentration of test compound versus % cell viability. IC50 values were interpolated from the resulting dose dependent curves.
(§3) The peptides were screened against several different human cell lines and their cytotoxicity were determined. Cell lines utilised include MCF-10A (human breast epithelial cell), HMLER (human breast cancer bulk cell), HMLER-shEcad (human breast cancer stem cell), HEK293T (human embryonic kidney cell), and U2OS (human bone osteosarcoma).

[2] = test system: HMLER (human breast cancer bulk cell); test: cells
Source text: as §1, §2, §3

[3] = test system: HEK293T (human embryonic kidney cell); test: cells
Source text: as §1, §2, §3

[4] = test system: HMLER-shEcad (human breast cancer stem cell); test: cells
Source text: as §1, §2, §3

[5] = Tryptophan fluorescent binding assay, POPC vesicles; settings: 50 μM peptide, PBS pH 7.4, lipid per peptide
Description: (§4) In brief, 50 μM peptides were fixed and incubated with titrated POPC vesicles (black) or 3POPC/1POPG vesicles (grey) at concentrations of 0, 12.5, 25, 50, 100, 250, 500, 1000, 2500, and 5000 μM in phosphate buffered saline (1×, pH 7.4). The lipid concentration that causes 50% peptide binding was determined using a tryptophan fluorescent binding assay and the values are shown as lipid per peptide.
(§5) The lipids 1-palmitoyl-2-oleoyl-sn-glycero-3-phosphocholine (POPC), 1-palmitoyl-2-oleoyl-snglycero-3-phospho-(1′-rac-glycerol) (POPG) were purchased from Avanti Polar Lipids and dissolved in chloroform. Large unilamellar vesicles (LUVs) were produced by extrusion through 100 nm pore filter using an extruder and filters purchased from Avanti Polar Lipids.
(§6) Peptides (50 μM) and POPC/POPG LUVs (600 μM) were prepared in 10 mM phosphate buffer (pH 7.0). The solutions were incubated and measured after 60 minutes. Excitation was fixed at 280 nm (slit 9 nm) and emission was collected from 300 to 450 nm (slit 9 nm). The spectra were recorded using a Synergy H1 Hybrid Multi-Mode Reader (FIG. 3A) and Cytation™ 5 Cell Imaging Multi-Mode Reader (FIG. 2) from BioTek and were averaged over 3 scans.
(§7) Table 3 illustrates the lipid concentration-induced 50% peptide binding onto a liposome. 50 μM peptide was fixed and incubated with titrated lipid (POPC vesicles or 3POPC/1POPG vesicles) at concentrations of 0, 12.5, 25, 50, 100, 250, 500, 1000, 2500, and 5000 μM in phosphate buffered saline (1×, pH 7.4). The lipid concentration that causes 50% peptide binding was determined using tryptophan fluorescent binding assay and the values are shown as lipid per peptide. †N-terminus is free, C-terminus: —W—NH2.

[6] = ANTS/DPX liposome leakage assay, 3POPC/1POPG vesicles; format: biochemical; settings: 0.5 mM vesicles; for Peptide Concentration-induced 50% ANTS/DPX leakage at pH 4.8, 3POPC/1POPG Vesicle: pH 4.8, lipid per peptide; for Peptide Concentration-induced 50% ANTS/DPX leakage at pH 7.4, 3POPC/1POPG Vesicle: pH 7.4, lipid per peptide
Description: (§8) In brief, 0.5 mM POPC vesicles (grey) or POPC:POPG vesicles (ratio 3:1, black) were incubated with peptide concentrations of 0, 0.02, 0.04, 0.08, 0.16, 0.32, 0.64, 1.25, 2.5, 5, 10, and 20 μM in each A) hydrochloric acid-adjusted phosphate buffered saline (1×, pH 4.8) and B) phosphate buffered saline (1×, pH 7.4).
as §5
(§9) 5 mM ANTS (8-aminonaphthalene-1,3,6-trisulfonic acid, disodium salt) and 12.5 mM DPX (p-xylene-bis-pyridinium bromide) were entrapped in 0.1 μm diameter extruded vesicles with lipids. Gel filtration chromatography using a Sephadex G-100 (GE Healthcare Life Sciences Inc) was used to remove external free ANTS/DPX from LUVs with entrapped contents. LUVs were diluted to 0.5 mM and used to measure the leakage activity by addition of aliquots of peptides. Leakage was measured after 3 h incubation. 10% Triton was used as the positive control to measure the maximum leakage of the vesicle. Fluorescence emission spectra were recorded using excitation and emission wavelength of 350 nm and 510 nm for ANTS/DPX using a BioTek Synergy H1 Hybrid Multi-Mode Reader.
(§10) Table 4 illustrates peptide concentration-induced 50% ANTS/DPX liposome leakage. 0.5 mM POPC and 3POPC/1POPG vesicles were fixed and incubated with titrated peptide concentration ([…]) each in phosphate buffered saline (1×, pH 7.4) and hydrochloric acid-adjusted phosphate buffered saline (1×, pH 4.8). The values are shown as lipid per peptide. †N-terminus is free, C-terminus: —W—NH2.

[7] = ANTS/DPX liposome leakage assay, POPC vesicles; format: biochemical; settings: 0.5 mM vesicles; for Peptide Concentration-induced 50% ANTS/DPX leakage at pH 4.8, POPC Vesicle: pH 4.8, lipid per peptide; for Peptide Concentration-induced 50% ANTS/DPX leakage at pH 7.4, POPC Vesicle: pH 7.4, lipid per peptide
Description: as §8, §5, §9, §10

[8] = Tryptophan fluorescent binding assay, 3POPC/1POPG vesicles; settings: 50 μM peptide, PBS pH 7.4, lipid per peptide
Description: as §4, §5, §6, §7

SMILES | IC50 ([1]; 72 h) [µM] | IC50 ([2]; 72 h) [µM] | IC50 ([3]; 72 h) [µM] | IC50 ([4]; 72 h) [µM] | IC50 ([1]; read-out: IC50 U20S, MTT, 72 hr) [µM] | IC50 ([2]; read-out: IC50 HMLER, MTT, 72 hr) [µM] | IC50 ([3]; read-out: IC50 HEK293T, MTT, 72 hr) [µM] | IC50 ([4]; read-out: IC50 HMLER-shEcad, MTT, 72 hr) [µM] | Lipid Concentration-induced 50% Peptide Binding, POPC Vesicle [5] [L/P] | Peptide Concentration-induced 50% ANTS/DPX leakage at pH 4.8, 3POPC/1POPG Vesicle [6] [L/P] | Peptide Concentration-induced 50% ANTS/DPX leakage at pH 7.4, 3POPC/1POPG Vesicle [6] [L/P] | Peptide Concentration-induced 50% ANTS/DPX leakage at pH 4.8, POPC Vesicle [7] [L/P] | Peptide Concentration-induced 50% ANTS/DPX leakage at pH 7.4, POPC Vesicle [7] [L/P] | Lipid Concentration-induced 50% Peptide Binding, 3POPC/1POPG Vesicle [8] [L/P]
CC(C)C[C@@H](NC(=O)CN)C(=O)N[C@H](CC(C)C)C(=O)N[C@H](CC(=O)O)C(=O)N[C@H](CC(C)C)C(=O)N[C@H](CC(C)C)C(=O)N[C@H](CCC(=O)O)C(=O)N[C@H](CC(C)C)C(=O)N[C@H](CC(C)C)C(=O)N[C@H](CC(C)C)C(=O)N[C@H](CCCCN)C(=O)N[C@H](C)C(=O)N[C@H](C)C(=O)NCC(=O)N[C@H](Cc1c[nH]c2ccccc12)C(N)=O [D-form DEK] | 5.84 ± 0.04 | 0.44 ± 0.1 | 3.28 ± 0.21 | 0.36 | – | – | – | – | – | – | – | – | – | –
CC(C)C[C@@H](NC(=O)CN)C(=O)N[C@H](CC(C)C)C(=O)N[C@H](CC(=O)O)C(=O)N[C@H](CC(C)C)C(=O)N[C@H](CC(C)C)C(=O)N[C@H](Cc1c[nH]cn1)C(=O)N[C@H](CC(C)C)C(=O)N[C@H](CC(C)C)C(=O)N[C@H](CC(C)C)C(=O)N[C@H](CCCCN)C(=O)N[C@H](C)C(=O)N[C@H](C)C(=O)NCC(=O)N[C@H](Cc1c[nH]c2ccccc12)C(N)=O [D-form DHK] | – | – | – | – | 1.24 ± 0.03 | 0.32 ± 0.07 | 1.55 ± 0.37 | 0.23 ± 0.04 | – | – | – | – | – | –
CC(C)C[C@H](NC(=O)CN)C(=O)N[C@@H](CC(C)C)C(=O)N[C@@H](CC(=O)O)C(=O)N[C@@H](CC(C)C)C(=O)N[C@@H](CC(C)C)C(=O)N[C@@H](CCC(=O)O)C(=O)N[C@@H](CC(C)C)C(=O)N[C@@H](CC(C)C)C(=O)N[C@@H](CC(C)C)C(=O)N[C@@H](CCC(=O)O)C(=O)N[C@@H](C)C(=O)N[C@@H](C)C(=O)NCC(=O)N[C@@H](Cc1c[nH]c2ccccc12)C(N)=O [DEE] | 61 ± 1.41 | 5.55 ± 0.35 | 9.91 ± 0.44 | 6.05 ± 2.76 | – | – | – | – | 0.63 | 164 | 597 | 110 | 644 | 0.38
CC(C)C[C@H](NC(=O)CN)C(=O)N[C@@H](CC(C)C)C(=O)N[C@@H](CC(=O)O)C(=O)N[C@@H](CC(C)C)C(=O)N[C@@H](CC(C)C)C(=O)N[C@@H](CCC(=O)O)C(=O)N[C@@H](CC(C)C)C(=O)N[C@@H](CC(C)C)C(=O)N[C@@H](CC(C)C)C(=O)N[C@@H](Cc1c[nH]cn1)C(=O)N[C@@H](C)C(=O)N[C@@H](C)C(=O)NCC(=O)N[C@@H](Cc1c[nH]c2ccccc12)C(N)=O [DEH] | 36.5 ± 3.92 | 5.35 ± 1.91 | 10.5 ± 4.67 | 3.6 ± 0.42 | – | – | – | – | 0.75 | 193 | 548 | 63 | 620 | 1.50
CC(C)C[C@H](NC(=O)CN)C(=O)N[C@@H](CC(C)C)C(=O)N[C@@H](CC(=O)O)C(=O)N[C@@H](CC(C)C)C(=O)N[C@@H](CC(C)C)C(=O)N[C@@H](Cc1c[nH]cn1)C(=O)N[C@@H](CC(C)C)C(=O)N[C@@H](CC(C)C)C(=O)N[C@@H](CC(C)C)C(=O)N[C@@H](CCC(=O)O)C(=O)N[C@@H](C)C(=O)N[C@@H](C)C(=O)NCC(=O)N[C@@H](Cc1c[nH]c2ccccc12)C(N)=O [DHE] | 17.2 ± 1.06 | 3.75 ± 0.92 | 11.1 ± 1.91 | 2.8 ± 0.14 | – | – | – | – | 1.00 | 469 | 581 | 58 | 566 | 0.72
CC(C)C[C@H](NC(=O)CN)C(=O)N[C@@H](CC(C)C)C(=O)N[C@@H](CC(=O)O)C(=O)N[C@@H](CC(C)C)C(=O)N[C@@H](CC(C)C)C(=O)N[C@@H](Cc1c[nH]cn1)C(=O)N[C@@H](CC(C)C)C(=O)N[C@@H](CC(C)C)C(=O)N[C@@H](CC(C)C)C(=O)N[C@@H](Cc1c[nH]cn1)C(=O)N[C@@H](C)C(=O)N[C@@H](C)C(=O)NCC(=O)N[C@@H](Cc1c[nH]c2ccccc12)C(N)=O [DHH] | 55.9 ± 18.9 | 21.4 ± 2.47 | 6.4 ± 0.42 | 11.9 ± 0.14 | – | – | – | – | 0.67 | 98 | 692 | 106 | 684 | 0.28
CC(C)C[C@H](NC(=O)CN)C(=O)N[C@@H](CC(C)C)C(=O)N[C@@H](Cc1c[nH]cn1)C(=O)N[C@@H](CC(C)C)C(=O)N[C@@H](CC(C)C)C(=O)N[C@@H](CCC(=O)O)C(=O)N[C@@H](CC(C)C)C(=O)N[C@@H](CC(C)C)C(=O)N[C@@H](CC(C)C)C(=O)N[C@@H](CCCCN)C(=O)N[C@@H](C)C(=O)N[C@@H](C)C(=O)NCC(=O)N[C@@H](Cc1c[nH]c2ccccc12)C(N)=O [HEK] | – | 2.35 ± 1.06 | 6.95 ± 1.63 | 3.45 ± 2.19 | – | – | – | – | 0.44 | 41. | 386 | 97 | 755 | 0.46
